Source: US20190002452A1 (GUANGZHOU HENOVCOM BIOSCIENCE CO., LTD, priority 2016, published 2019)

biological target: T1, human farnesol receptor protein hFXR (Homo sapiens, UniProt Q96RI1); assay: AlphaScreen assay of FXR agonist activity in vitro: effect on binding between human farnesol receptor protein and its coactivator (SRC1-2); format: biochemical; settings: hFXR 100 nM, peptide bSRC1-2 50 nM, 2 hr incubation at room temperature
T1 construct: hexahistidine (His6)
T1 sequence (Q96RI1 1-486): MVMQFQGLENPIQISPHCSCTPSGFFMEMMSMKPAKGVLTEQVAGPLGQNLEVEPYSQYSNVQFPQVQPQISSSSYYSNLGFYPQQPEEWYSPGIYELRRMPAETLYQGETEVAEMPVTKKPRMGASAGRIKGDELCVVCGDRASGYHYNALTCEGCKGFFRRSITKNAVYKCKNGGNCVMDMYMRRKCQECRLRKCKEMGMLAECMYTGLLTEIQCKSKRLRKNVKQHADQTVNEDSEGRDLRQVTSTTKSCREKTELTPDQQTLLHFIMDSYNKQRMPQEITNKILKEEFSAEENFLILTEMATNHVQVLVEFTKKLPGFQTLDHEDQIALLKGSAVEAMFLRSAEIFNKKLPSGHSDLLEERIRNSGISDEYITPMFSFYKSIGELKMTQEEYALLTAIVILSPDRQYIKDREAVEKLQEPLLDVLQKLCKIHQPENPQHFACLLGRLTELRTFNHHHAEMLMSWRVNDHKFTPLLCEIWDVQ
Protocol: FXR agonist activity in vitro for the chemicals prepared in the above examples is measured.
AlphaScreen-based assays are performed with a hexahistidine detection kit manufactured by Perkins-Elmer, for measuring the effect of chemical compounds on the binding between human farnesol receptor protein and its coactivator (SRC1-2), the method is shown as follows:
1) Preparing a mixture comprising human farnesol receptor protein hFXR (100 nM, 15 μL/well), peptide bSRC1-2 (50 nM, 15 μL/well), 10× AlphaScreen buffer solution (15 μL/well and DI water (60 μL/well), and then transferring 105 μL/well of the mixture to a 96-well plate; 2) Diluting the chemicals prepared in the above examples by twice gradient 12×, with 15 μL/well; 3) Adding donor beads and acceptor beads, 30 μL/well in total; (attention: the beads are light-sensitive) 4) Incubating in dark at room temperature for 2 hr; 5) Transferring 40 μL/well of the mixture to a 384-well plate with 3 replicates, and then centrifuging at 1000 rpm for 1 min, to make liquid mixed well underneath the wells. (attention: photopathic operation); 6) In a dark room, reading the plate (by Homogeneous luminescent immunoassay system) to obtain EC50 with a GraphPad Prism5 software.

EC50	SMILES
100 to 1000 nM	C[C@@H]1CC2(CC(OCc3c(-c4c(Cl)cccc4Cl)noc3C3CC3)C2)CN1c1nc2ccc(C(=O)O)cc2s1 (stereo partly drawn) [Example 15, (R)-2-(2-((5-cyclopropyl-3-(2,6-dichlorophenyl)isoxazol-4-yl)methoxy)-7-methyl-6-azaspiro[3.4]octan-6-yl) benzo[d]thiazole-6-carboxylic Acid]
100 to 1000 nM	Cn1c(C(=O)O)cc2cc(N3CCC4(CC(OCc5c(-c6c(Cl)cccc6Cl)noc5C5CC5)C4)C3)ccc21 (centres unmarked) [Example 32, 5-(2-((5-cyclopropyl-3-(2,6-dichlorophenyl)isoxazol-4-yl)methoxy)-6-azaspiro[3.4]octan-6-yl)-1-methyl-1H-indole-2-carboxylic Acid]
< 100 nM	O=C(O)c1ccc2nc(N3CCc4cc(OCc5c(-c6ccccc6C(F)(F)F)noc5C5CC5)ccc4C3)sc2c1 [Example 43, 2-(6-((5-cyclopropyl-3-(2-trifluoromethylphenyl)isoxazol-4-yl)methoxy)-3,4-dihydroisoquinolin-2(1H)-yl) benzo[d]thiazole-6-carboxylic Acid]
< 100 nM	O=C(O)c1ccc2nc(N3CCC4(CC(OCc5c(-c6c(Cl)cccc6Cl)noc5C5CC5)C4)C3)oc2c1 (centres unmarked) [Example 14, 2-(2-((5-cyclopropyl-3-(2,6-dichlorophenyl)isoxazol-4-yl)methoxy)-6-azaspiro[3.4]octan-6-yl) benzo[d]oxazole-6-carboxylic Acid]
100 to 1000 nM	C[C@@H]1CC2(CC(OCc3c(-c4c(Cl)cccc4Cl)noc3C3CC3)C2)CN1c1nc2c(F)cc(C(=O)O)cc2s1 (some centres unmarked) [Example 17]
100 to 1000 nM	O=C(O)c1cc(F)c2nc(N3CCC4(CC(OCc5c(-c6c(Cl)cccc6Cl)noc5C5CC5)C4)C3)sc2c1 (centres unmarked) [Example 13, 2-(2-((5-cyclopropyl-3-(2,6-dichlorophenyl)isoxazol-4-yl)methoxy)-6-azaspiro[3.4]octan-6-yl)-4-flurobenzo[d]thiazole-6-carboxylic Acid]
< 100 nM	O=C(O)c1ccc2nc(N3CCC4(CC(OCc5c(-c6c(Cl)cccc6Cl)noc5C5CC5)C4)C3)sc2c1 (centres unmarked) [Example 8, 2-(2-((5-cyclopropyl-3-(2,6-dichlorophenyl)isoxazol-4-yl)methoxy)-6-azaspiro[3.4]octan-6-yl)benzo[d]thiazole-6-carboxylic Acid]
< 100 nM	O=C(O)c1ccc2nc(N3CC4CC(OCc5c(-c6c(Cl)cccc6Cl)noc5C5CC5)CC4C3)sc2c1 (centres unmarked) [Example 26, 2-(5-((5-cyclopropyl-3-(2,6-dichlorophenyl)isoxazol-4-yl)methoxy)hexahydrocyclopenta[c]pyrrol-2(1H)-yl) benzo[d]thiazole-6-carboxylic Acid]
100 to 1000 nM	CS(=O)(=O)NC(=O)c1ccc2nc(N3CCC4(CC(OCc5c(-c6c(Cl)cccc6Cl)noc5C5CC5)C4)C3)sc2c1 (centres unmarked) [Example 47, 2-(2-((5-cyclopropyl-3-(2,6-dichlorophenyl)isoxazol-4-yl)methoxy)-6-azaspiro[3.4]octan-6-yl)-N-(methylsulfonyl)benzo[d]thiazole-6-carboxamide]
100 to 1000 nM	O=C(O)c1ccc(N2CCC3(CC(OCc4c(-c5c(Cl)cccc5Cl)noc4C4CC4)C3)C2)cn1 (centres unmarked) [Example 45]
100 to 1000 nM	O=C(O)c1ccc2nc(N3CCC4(CC(OCc5c(-c6c(F)cccc6F)noc5C5CC5)C4)C3)oc2c1 (centres unmarked) [Example 39, 2-(2-((5-cyclopropyl-3-(2,6-difluorophenyl)isoxazol-4-yl)methoxy)-6-azaspiro[3.4]octan-6-yl) benzo[d]oxazole-6-carboxylic Acid]
